The text below walks through data of US12122771B2, “Compounds useful for treatment of substance use disorder” (HIGH POINT UNIVERSITY, priority 2021, dated 2024).

One assay has as its target hD2R (Homo sapiens (Human), UniProt P14416). In words: [3H]N-methylspiperone competition binding, D2R. The conditions noted are these: HEK 293 membranes, read-out: Ki (nM) ± SEM D2R.
A further assay has as its target hD4R (Homo sapiens (Human), UniProt P21917). Kind of assay: [3H]N-methylspiperone competition binding, D4R. The conditions noted are these: for Ki: HEK 293 membranes, [3H]N-methylspiperone, read-out: Ki (nM) ± SEM D4R; for Selectivity D2R/D4R / Selectivity D3R/D4R: ratio of Ki values.
In another assay the target is hD3R (Homo sapiens (Human), UniProt P35462). Conditions: read-out: Ki (nM) ± SEM D3R; HEK 293 membranes, [3H]N-methylspiperone.
Sequence of hD3R (P35462 whole entry): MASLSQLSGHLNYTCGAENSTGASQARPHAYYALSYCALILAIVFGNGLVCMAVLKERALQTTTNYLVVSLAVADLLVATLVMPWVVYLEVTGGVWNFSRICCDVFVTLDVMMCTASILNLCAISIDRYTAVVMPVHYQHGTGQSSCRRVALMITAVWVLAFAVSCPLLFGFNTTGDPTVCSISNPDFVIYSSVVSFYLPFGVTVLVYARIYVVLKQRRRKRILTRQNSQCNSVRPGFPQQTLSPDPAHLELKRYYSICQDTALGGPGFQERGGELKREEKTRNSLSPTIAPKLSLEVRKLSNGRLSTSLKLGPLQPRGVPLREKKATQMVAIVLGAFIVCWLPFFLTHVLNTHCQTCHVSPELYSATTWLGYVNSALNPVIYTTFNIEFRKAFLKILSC
Another assay has as its system cocaine intake. Conditions: monkeys; cited from earlier work.

Sequence of hD4R (P21917 whole entry): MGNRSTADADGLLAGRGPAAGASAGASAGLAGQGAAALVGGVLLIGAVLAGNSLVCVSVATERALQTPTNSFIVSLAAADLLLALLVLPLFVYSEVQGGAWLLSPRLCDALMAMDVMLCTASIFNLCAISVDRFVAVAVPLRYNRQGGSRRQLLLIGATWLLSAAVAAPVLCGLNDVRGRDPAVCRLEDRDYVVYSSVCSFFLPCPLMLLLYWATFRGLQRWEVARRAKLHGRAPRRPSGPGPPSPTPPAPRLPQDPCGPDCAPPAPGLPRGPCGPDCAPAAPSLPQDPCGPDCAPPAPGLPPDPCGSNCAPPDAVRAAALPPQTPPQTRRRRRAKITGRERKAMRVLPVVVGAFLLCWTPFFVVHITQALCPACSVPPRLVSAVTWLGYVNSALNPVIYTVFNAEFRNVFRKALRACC
Sequence of hD2R (P14416 whole entry): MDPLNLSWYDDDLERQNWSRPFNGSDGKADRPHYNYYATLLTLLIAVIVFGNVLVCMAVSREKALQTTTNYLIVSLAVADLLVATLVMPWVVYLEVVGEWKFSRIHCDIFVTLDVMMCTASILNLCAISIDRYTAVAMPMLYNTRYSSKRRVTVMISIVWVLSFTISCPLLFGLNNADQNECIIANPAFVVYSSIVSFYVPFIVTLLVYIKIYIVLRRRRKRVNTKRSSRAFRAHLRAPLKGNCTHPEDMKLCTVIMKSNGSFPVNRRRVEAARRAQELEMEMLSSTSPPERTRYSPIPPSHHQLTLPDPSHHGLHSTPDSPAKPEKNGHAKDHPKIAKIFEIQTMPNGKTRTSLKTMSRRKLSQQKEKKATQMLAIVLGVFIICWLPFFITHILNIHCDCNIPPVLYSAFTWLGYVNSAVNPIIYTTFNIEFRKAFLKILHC

Take `Cc1cccc2nc(CCCN3CCC(c4ccccn4)CC3)sc12` [Compound 15]: the inhibitory constant (Ki) on hD2R came out at 18000 ± 15200 nM. In addition, on hD4R, the “D4R binding selectivity vs. D2R and D3R (other D2-like receptors)” value is above 15907 fold; the Ki is 1.13 ± 0.27 nM; the “Selectivity D2R/D4R” value is listed as 15907; the “Selectivity D3R/D4R” value came to 32756. For the same compound, at hD3R, the inhibitory constant (Ki) worked out at 37100 ± 30300 nM.
`CCc1ccnc(C2CCN(CCCc3nc4ccccc4s3)CC2)c1` [Compound 19]: the Ki at hD2R worked out at 12300 ± 7670 nM. In addition, on hD4R, the Ki amounted to 5.89 nM, the “Selectivity D2R/D4R” value was 2082 and the “Selectivity D3R/D4R” value turned out to be 2838. Besides, at hD3R, the inhibition constant (Ki) was 16700 ± 13300 nM.
With `c1ccc(-c2ncc(CN3CCN(c4ncccn4)CC3)[nH]2)cc1` [NGD-94-1], the cocaine intake result with cocaine intake is recorded as “reduced cocaine intake”.
On to Ro10-5824, for which the cocaine intake entry in the assay on cocaine intake was “reduced cocaine intake”.

By Ki is commonly meant a dissociation constant, usually derived from enzyme kinetics or from competition with a known ligand.
